Test: Agonist activity at human sensory neuron-specific G-protein coupled receptor expressed in HEK293 cells assessed as intracellular calcium mobilization by FLIPR
Assay type: functional, cell-based

| Compound | EC50 [nM] |
| --- | --- |
| CCC(C)(C)[C@H](NC(=O)[C@H](NC(=O)[C@@H]1CCCN1C(=O)[C@H](Cc1ccc(Br)cc1)NC(=O)[C@@H](C)NC=O)C(C)(C)C)C(=O)N[C@H](Cc1c[nH]c2ccccc12)C(=O)N[C@@H](CCCNC(=N)N)C(=O)N[C@H](CS(=O)(=O)O)C(=O)N[C@@H]1C(=O)N(C)[C@@H](CCC(N)=O)C(=O)N[C@H](C(C)C)C(=O)N2CCC[C@H]2C(=O)N[C@H](CC(=O)O)C(=O)O[C@@H]1C [POLYDISCAMIDE B] | 1260 |
| CCC(C)(C)[C@H](NC(=O)[C@H](NC(=O)[C@@H]1CCCN1C(=O)[C@H](Cc1ccc(Br)cc1)NC(=O)[C@@H](C)NC=O)C(C)C)C(=O)N[C@H](Cc1c[nH]c2ccccc12)C(=O)N[C@@H](CCCNC(=N)N)C(=O)N[C@H](CS(=O)(=O)O)C(=O)N[C@@H]1C(=O)N(C)[C@@H](CCC(N)=O)C(=O)N[C@H](C(C)C)C(=O)N2CCC[C@H]2C(=O)N[C@H](CC(=O)O)C(=O)O[C@@H]1C [POLYDISCAMIDE C] | 3570 |
| CC(C)[C@@H](NC(=O)[C@@H]1CCCN1C(=O)[C@H](Cc1ccc(Br)cc1)NC(=O)[C@@H](C)NC=O)C(=O)N[C@H](C(=O)N[C@H](Cc1c[nH]c2ccccc12)C(=O)N[C@@H](CCCNC(=N)N)C(=O)N[C@H](CS(=O)(=O)O)C(=O)N[C@@H]1C(=O)N(C)[C@@H](CCC(N)=O)C(=O)N[C@H](C(C)C)C(=O)N2CCC[C@H]2C(=O)N[C@H](CC(=O)O)C(=O)O[C@@H]1C)C(C)(C)C [POLYDISCAMIDE D] | 2800 |

Source: ChEMBL document CHEMBL1143076, “Polydiscamides B-D from a marine sponge Ircinia sp. as potent human sensory neuron-specific G protein coupled receptor agonists” (J Nat Prod, 2008)
